The source of these data is patent US6576662B2, “Compounds having anticancer activity : process for their preparation and pharmaceutical compositions containing them” (Dr. Reddy's Laboratories Limited, priority 2000, dated 2003).

Like-named read-outs stand apart in the source and are kept apart here.

Series [1] has as its system ACHN. In words: in vitro anti-cancer screen, Sulforhodamine B method. It is filed as cell-based. Particulars: Homo sapiens; RENAL: ACHN; 48 h incubation; read-out: GROWTH INHIBITION (GI 50). The procedure:
(§1) Each test compound was screened against a battery of cell lines representing eight different types of cancers. In a typical procedure, 1×10^4 cells were seeded into each well of 96 well plate in 100 μL volume of RPMI 1640 medium containing antibiotics and 10% FCS.
(§2) The plates were incubated at 37° C. in presence of CO2. After 24 h, test compounds were evaluated at five 10 fold dilutions ranging from 100 to 0.01 μM. To each test well 100 μL of test compound solution was added and medium with vehicle was added to control wells and the plates were further incubated. After 48 h of incubation, plates were terminated by Sulforhodamine B method.
(§3) The optical density which is proportional to protein mass, is then-read by automated spectrophotometric plate reader at a wavelength of 515 nm.

In series [2] the test system is PC-3. Described as above. As to conditions: Homo sapiens; PROSTATE: PC-3; 48 h incubation; read-out: GROWTH INHIBITION (GI 50). It is filed as cell-based. Here is the method:
as §1, §2, §3

The test system of series [3] is OVCAR. The series is described as above. In kind it is cell-based. As to conditions: Homo sapiens; OVARIAN: OVCAR; 48 h incubation; read-out: GROWTH INHIBITION (GI 50). The procedure:
as §1, §2, §3

In series [4] the test system is MCF7. In words: in vitro anti-cancer screen, Sulforhodamine B method. In kind it is cell-based, human. Particulars: Homo sapiens; BREAST: MCF7; 48 h incubation; read-out: GROWTH INHIBITION (GI 50). Here is the method: as §1, §2, §3
Background: Sulforhodamine B stains cellular protein and so reports cell mass.

Series [5] concerns MCF-7/ADR. The description is as above. As to conditions: BREAST: MCF-7/ADR, 48 h incubation, read-out: GROWTH INHIBITION (GI 50). It is filed as cell-based, human. The procedure: as §1, §2, §3
Series [6] has as its system DU145. The description is as above. It is filed as cell-based, human. As to conditions: PROSTATE: DU145, 48 h incubation, read-out: GROWTH INHIBITION (GI 50). The procedure: as §1, §2, §3
The subject of series [7] is HT29. The description is as above. It is filed as cell-based, human. As to conditions: Homo sapiens, HT-29; COLON: HT29; 48 h incubation; read-out: GROWTH INHIBITION (GI 50). Here is the method:
as §1, §2, §3

In series [8] the test system is PA1. The description is as above. In kind it is cell-based, human. Particulars: Homo sapiens, PA-1; OVARIAN: PA1; 48 h incubation; read-out: GROWTH INHIBITION (GI 50). Here is the method:
as §1, §2, §3

Series [9] has as its system UACC62. Described as above. It is filed as cell-based, human. Particulars: Homo sapiens, UACC-62; MELANOMA: UACC62; 48 h incubation; read-out: GROWTH INHIBITION (GI 50). Here is the method:
as §1, §2, §3

For series [10], the system named is H522. The description is as above. In kind it is cell-based, human. As to conditions: LUNG: H522, 48 h incubation, read-out: GROWTH INHIBITION (GI 50). The procedure: as §1, §2, §3
The test system of series [11] is SKOV-3. The series is described as above. In kind it is cell-based, human. As to conditions: OVARIAN: SKOV-3, 48 h incubation, read-out: GROWTH INHIBITION (GI 50). Here is the method: as §1, §2, §3
The test system of series [12] is SW-620. Described as above. In kind it is cell-based, human. As to conditions: COLON: SW-620, 48 h incubation, read-out: GROWTH INHIBITION (GI 50). The procedure: as §1, §2, §3
The test system of series [13] is U251. Described as above. It is filed as cell-based, human. Particulars: CNS: U251, 48 h incubation, read-out: GROWTH INHIBITION (GI 50). The procedure: as §1, §2, §3
Series [14] deals with HIV-1/MN. In words: Anti HIV activity, P24 antigen in infected PM-1 cells. In kind it is cell-based. Particulars: Concentration 1 μM; PM-1 cells infected with HIV-1/MN, 96 h; P24 antigen corrected by MTT. The procedure: Human CD4+T cell line PM-1 used in the assay was cultured in RPMI-1640 medium containing 10% Fetal bovine serum, 2 g/L sodium bicarbonate, 100,000 units/L Penicillin-G and 100 mg/L streptomycin. Healthy PM-1 cells were plated on the first day in a 96 well plate at […]. After 24 h HIV-1/MN was added to the culture and incubated for 2 h for infection. Cells were washed twice with PBS to remove the virus in the culture. Different concentrations of DRF compounds ranging from 10^−4 to 10^−8M were added to the culture and incubated for 96 h. The viability of cells was then assessed by standard MTT assay and the viral antigen P24 levels were estimated by ELSA method. Based on the MTT assay values the P 24 antigen values were corrected. All the samples were tested in triplicates and the average was used for calculations. AZT was used as standard compound for comparision.

For series [15], the system named is HIV-1(IIIB). As to conditions: cited from earlier work.
Series [16] relates to KB. Particulars: KB cells; cited from earlier work.
Series [17] concerns P388 lymphocytic leukemia. Particulars: P388 cells; cited from earlier work.
Series [18] concerns M14. In words: in vitro anti-cancer screen, Sulforhodamine B method. It is filed as cell-based, human. As to conditions: MELANOMA: M14; 48 h incubation; read-out: GROWTH INHIBITION (GI 50). Here is the method:
as §1, §2, §3

Series [19] concerns A498. The description is as above. It is filed as cell-based, human. As to conditions: RENAL: A498; 48 h incubation; read-out: GROWTH INHIBITION (GI 50). The procedure:
as §1, §2, §3

Series [20] concerns Human lymphocytes. Briefly: Lymphocyte proliferation, tritiated thymidine incorporation. As to conditions: Concentration 1 μM; human lymphocytes with Phytohemagglutitin A. It is filed as cell-based. The procedure:
Human lymphocytes were isolated from whole blood by using Ficoll Hypaque Plus (Amersham). On day one, 1 million lymphocytes were seeded into each well of 96 well plate in 100 μL volume of RPMI 1640 medium containing 10% FCS and Phytohemagglutitin A at 1 μg/well concentration. Plates were incubated at 37° C. in CO2 incubator for 24 h. Test compounds at various concentrations were added to test wells and only medium with vehicle was added to control wells. After 48 h of incubation […] of tritiated thymidine was added to each well. After 24 h of thymidine addition the cells were harvested and the incorporated radioactivity was determined. Stimulation Index (SI) was calculated using the formula, [formula]
A^T=Average CPM of treated wells,
A^C=Average CPM of control wells.

In series [21] the test system is tumor cell lines. Particulars: cited from earlier work.

For orientation: melting point means the temperature of the solid-liquid transition. `C=C1CCC2[C@]3(C)COC(C)(c4ccccc4)O[C@@H]3CC[C@]2(C)[C@H]1CC(C1=CCOC1=O)N1CCCC1C(=O)OC` (stereo partly shown) [Example 23, 14-Deoxy-12-(O-methylprolino)-3,19-O-(1-phenylethylidene)andrographolide] displayed a melting point of 141 to 143 °C. Moreover, the GI50 in [1] was determined as 13000 nM. In addition, in [2], the GI50 came to 2000 nM. The GI50 in series [3] was 1000 nM. Further, the GI50 in series [4] stood at 4000 nM. In addition, the GI50 in series [5] (Homo sapiens, NCI/ADR-RES) amounted to 2000 nM. The GI50 in series [6] (Homo sapiens, DU-145) is 11000 nM. Besides, the GI50 in series [7] was 3000 nM. Further, the GI50 in [8] is 1000 nM. Further, the GI50 in [9] turned out to be 2000 nM. The GI50 in series [10] (Homo sapiens, NCI-H522) came out at 15000 nM. Besides, in series [11] (Homo sapiens, SK-OV-3), the GI50 turned out to be 4000 nM. The GI50 in series [12] (Homo sapiens) was 2000 nM. Besides, in series [13] (Homo sapiens, U-251), the GI50 stood at 2000 nM.
With `Cc1cn([C@H]2C[C@H](N=[N+]=[N-])[C@@H](CO)O2)c(=O)[nH]c1=O` [AZT, reference compound], in series [14], the “Percentage Inhibition” value stood at 72.47.
“dehydroandrographolide succinic acid monoester [DASM]”: the “minimal concentration inhibitory to HIV-1(IIIB)” value in series [15] was 1.6 to 3.1 µg/mL.
In the case of `C=C1CC[C@@H]2[C@](C)(CO)[C@H](O)CC[C@@]2(C)[C@@H]1C/C=C1/C(=O)OC[C@H]1O` [Andrographolide], the cytotoxic activity result in [16] and in series [17] was “potent cytotoxic activity” each time.
In the case of `C=C1CCC2C(C)(COC(C)=O)C(OC(C)=O)CCC2(C)C1CC(NCc1ccccc1)C1=CCOC1=O` (stereo not shown) [Example 1, 3,19-Diacetyl-12-(N-benzylamino)-14-deoxy andrographolide], the GI50 in [5] is 8000 nM; in series [6] it was 7000 nM; in series [18] it was 5000 nM; in series [10], 9000 nM; in series [11], 300 nM; in series [12] it was 4000 nM. Moreover, the GI50 in [19] is 5000 nM; in series [13] it was 200 nM. For the same compound, in series [20], the “Stimulation Index (SI)” value came to 123. Also, in series [14], the “Percentage Inhibition” value was found to be 73.94.
Turning to `C=C1CCC2[C@](C)(CC[C@@H](O)[C@@]2(C)CO)C1/C=C/C1=CCOC1=O` (stereo partly shown) [14-deoxy-11,12-didehydroandrographolide], the cytotoxic activity result in series [21] is recorded as “no cytotoxic activity”.
Compound `C=C1CCC2[C@]3(C)COC(C)(c4ccccc4)OC3CC[C@]2(C)[C@H]1CC(NC(Cc1ccccc1)C(=O)OC)C1=CCOC1=O` (stereo partly shown) [Example 22, 14-Deoxy-12-(O-methylphenylalanino)-3,19-O-(1-phenylethylidene)andrographolide] yielded a melting point of 171.6 to 171.9 °C. Besides, in [1], the GI50 amounted to 14000 nM. The GI50 in series [2] was 2000 nM. Moreover, the GI50 in series [3] was 1400 nM. For the same compound, the GI50 in series [4] amounted to 3000 nM. Further, in series [5] (Homo sapiens, NCI/ADR-RES), the GI50 was determined as 2000 nM. For the same compound, the GI50 in series [6] (Homo sapiens, DU-145) was found to be 12000 nM. Besides, in series [7], the GI50 was 3000 nM. Also, in series [8], the GI50 worked out at 1400 nM. The GI50 in series [9] was 3000 nM. Besides, the GI50 in [10] (Homo sapiens, NCI-H522) came to 20000 nM. Further, the GI50 in series [11] (Homo sapiens, SK-OV-3) was 4000 nM. The GI50 in series [12] (Homo sapiens) was determined as 3000 nM. Further, in series [13] (Homo sapiens, U-251), the GI50 worked out at 3000 nM.
